# “And” between values parts separate entries of the source, which are not always exact repeats. Equal entries are not always repeated.
# What was measured:
# CYP2C19 = molecular target: T1, CYP2C19 (Homo sapiens, UniProt P33261); assay: Inhibition of CYP activities by GA in HLMs (mephenytoin); assay type: biochemical
# T1 construct: was investigated in HLMs; tissue iPhase Pharmaceutical Services (Beijing, China) Lot # 7MMC011; host or cells: pooled human liver microsomes
# Procedure: (§1) The samples containing HLMs were prepared in an ice bath, and three replicates of each dose were tested.
# (§2) The reaction system consisted of 0.5 g/L HLMs, 1 mM NADPH, 25 µM phenacetin (CYP1A2 substrate), 25 µM tolbutamide (CYP2C9 substrate), 25 µM mephenytoin (CYP2C19 substrate), 10 µM dextromethorphan (CYP2D6 substrate) and 10 µM midazolam (CYP3A4 substrate). After incubation at 37 °C for 30 min, 200 µL of methanol containing 100 µg/L propranolol hydrochloride was added to terminate the reaction. The samples were then treated, and the corresponding substrate metabolites of CYP isoforms were detected according to a previously described method ([Shen et al., 2013]).
# CYP3A4 = molecular target: T2, CYP3A4 (Homo sapiens, UniProt P08684); assay: Inhibition of CYP activities by GA in HLMs (midazolam); assay type: biochemical
# T2 construct: was investigated in HLMs; tissue iPhase Pharmaceutical Services (Beijing, China) Lot # 7MMC011; host or cells: pooled human liver microsomes
# T2 sequence (P08684 whole entry): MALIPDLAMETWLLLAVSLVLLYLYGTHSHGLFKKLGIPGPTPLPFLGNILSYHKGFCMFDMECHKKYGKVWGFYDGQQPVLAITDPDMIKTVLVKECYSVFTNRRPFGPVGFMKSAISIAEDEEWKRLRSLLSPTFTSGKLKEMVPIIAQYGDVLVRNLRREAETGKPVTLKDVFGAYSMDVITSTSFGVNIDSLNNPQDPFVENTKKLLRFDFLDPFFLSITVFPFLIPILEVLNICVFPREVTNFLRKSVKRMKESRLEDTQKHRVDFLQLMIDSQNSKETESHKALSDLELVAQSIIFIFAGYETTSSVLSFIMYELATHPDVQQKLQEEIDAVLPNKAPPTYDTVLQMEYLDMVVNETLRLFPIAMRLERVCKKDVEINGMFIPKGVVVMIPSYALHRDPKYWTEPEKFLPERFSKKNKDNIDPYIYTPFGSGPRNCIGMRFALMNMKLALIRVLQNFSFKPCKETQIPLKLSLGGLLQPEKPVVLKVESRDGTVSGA
# Procedure: as §1, §2
# CYP2C9 = molecular target: T3, CYP2C9 (Homo sapiens, UniProt P11712); assay: Inhibition of CYP activities by GA in HLMs (tolbutamide); assay type: biochemical
# T3 construct: tissue iPhase Pharmaceutical Services (Beijing, China) Lot # 7MMC011; host or cells: pooled human liver microsomes
# T3 sequence (P11712 whole entry): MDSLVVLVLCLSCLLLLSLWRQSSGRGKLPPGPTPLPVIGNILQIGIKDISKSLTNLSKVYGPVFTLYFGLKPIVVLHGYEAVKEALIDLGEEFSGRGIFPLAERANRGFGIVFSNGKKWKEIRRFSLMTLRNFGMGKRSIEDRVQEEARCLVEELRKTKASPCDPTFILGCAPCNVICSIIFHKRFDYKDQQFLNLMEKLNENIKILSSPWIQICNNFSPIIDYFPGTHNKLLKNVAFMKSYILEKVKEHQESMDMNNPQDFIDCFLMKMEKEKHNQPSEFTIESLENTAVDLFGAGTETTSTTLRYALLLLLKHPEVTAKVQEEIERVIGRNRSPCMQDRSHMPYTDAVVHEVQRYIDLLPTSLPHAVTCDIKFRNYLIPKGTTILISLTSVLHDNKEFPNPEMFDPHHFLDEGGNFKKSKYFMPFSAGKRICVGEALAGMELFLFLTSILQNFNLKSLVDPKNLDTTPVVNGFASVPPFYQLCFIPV
# Procedure: as §1, §2
# BAK metabolism in HLMs = assay: Metabolic elimination of BAK in HLMs and its inhibition by GA (HPLC); assay type: in vitro ADME, human; conditions: for Remaining percentage of GA (%) / Inhibition of BAK by GA (%): 30 min, mean; for Inhibition of BAK by GA, single samples / remaining of GA (%), single samples: t=30 min
# Procedure: The HLM mixtures were prepared on ice. […] At the end of the incubation (0 or 30 min), 200 µL of methanol-acetonitrile (1:1, V:V) solution containing tanshinone II A (internal standard) was added to terminate the reaction. The mixtures were then vortexed for 2 min followed by centrifugation at 14,500 rpm for 10 min. A 10 µL aliquot of the supernatant was then injected for HPLC analysis. […] RContr is the percentage of BAK remaining in the BAK group.
# HK-2 cells = assay: HK-2 cell viability, MTT assay, with or without co-cultured HLMs; assay type: cell-based, human; conditions: GA 100 µM alone
# Procedure: HK-2 cells obtained from Peking Union Medical College were maintained in D/F12 medium containing 10% fetal bovine serum, 2 mM glutamine and 1 × 10^5 U/L penicillin and streptomycin at 37 °C in a 5% CO2 atmosphere. […] The samples containing HLMs were prepared in an ice bath, and three replicates were tested for each dose. In brief, HK-2 cells (100 µL) were seeded at 3 × 10^5cells/mL in 96-well plates. After 12 h, 200 µL of the test compound was added. For the BAK and GA with HLMs group, GA was pre-incubated with NADPH in HLMs for 30 min at 37 °C and then mixed with BAK; for the other groups, all tested compounds except NADPH were mixed, and NADPH was then added to start the metabolic reaction. After 4 h of culture, 100 µL of 0.5 g/L MTT was added, and the cells were cultured for 4 h. Subsequently, 150 µL of 4% isopropanol was added to cells for 15 min at 37 °C, and the absorbance at 570 nm was then read by a microplate reader (Multiskan MK3, Thermo, USA). The relative cell viability (%) was calculated as follows: Mean Absorbance of Sample/Mean Absorbance of Vehicle Control × 100%.
# T1 sequence (P33261 whole entry): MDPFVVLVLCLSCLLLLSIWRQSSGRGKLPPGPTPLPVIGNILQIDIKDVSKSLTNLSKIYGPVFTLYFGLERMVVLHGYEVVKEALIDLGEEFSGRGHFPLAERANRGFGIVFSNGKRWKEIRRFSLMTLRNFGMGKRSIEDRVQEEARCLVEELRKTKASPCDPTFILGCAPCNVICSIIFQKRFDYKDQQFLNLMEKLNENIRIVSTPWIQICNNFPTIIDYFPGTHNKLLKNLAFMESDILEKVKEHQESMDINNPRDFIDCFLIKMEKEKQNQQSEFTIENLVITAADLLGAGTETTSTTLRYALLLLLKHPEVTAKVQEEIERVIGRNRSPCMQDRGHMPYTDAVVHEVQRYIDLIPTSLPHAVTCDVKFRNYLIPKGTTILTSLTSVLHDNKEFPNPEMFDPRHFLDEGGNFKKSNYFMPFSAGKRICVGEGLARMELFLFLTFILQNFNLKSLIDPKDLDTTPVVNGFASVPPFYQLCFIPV
compound,measurement,setting,value
"CC1(C)[C@@H](O)CC[C@]2(C)[C@H]3C(=O)C=C4[C@@H]5C[C@@](C)(C(=O)O)CC[C@]5(C)CC[C@@]4(C)[C@]3(C)CC[C@@H]12 [GA, Glycyrrhetinic acid]",IC50,"CYP2C19; HLMs, 30 min pre-incubation with NADPH, mephenytoin 25 µM",175.2 ± 1.26 µM
same,"activity at 30 min, 0.1 µM","CYP2C19; human, human liver microsomes, probe mephenytoin (25 µM), CYP2C19-30min, GA 0.1000, vs control, read-out: Relative activity (%)",117%
same,"activity at 30 min, 1 µM","CYP2C19; human, human liver microsomes, probe mephenytoin (25 µM), CYP2C19-30min, GA 1.0000, vs control, read-out: Relative activity (%)",105%
same,"activity at 30 min, 6.25 µM","CYP2C19; human, human liver microsomes, probe mephenytoin (25 µM), CYP2C19-30min, GA 6.2500, vs control, read-out: Relative activity (%)",88%
same,"activity at 30 min, 31.25 µM","CYP2C19; human, human liver microsomes, probe mephenytoin (25 µM), CYP2C19-30min, GA 31.2500, vs control, read-out: Relative activity (%)",80%
same,"activity at 30 min, 100 µM","CYP2C19; human, human liver microsomes, probe mephenytoin (25 µM), CYP2C19-30min, GA 100.0000, vs control, read-out: Relative activity (%)",72.5%
same,"activity at 30 min, 156.25 µM","CYP2C19; human, human liver microsomes, probe mephenytoin (25 µM), CYP2C19-30min, GA 156.2500, vs control, read-out: Relative activity (%)",57.9%
same,"activity at 30 min, 312.5 µM","CYP2C19; human, human liver microsomes, probe mephenytoin (25 µM), CYP2C19-30min, GA 312.5000, vs control, read-out: Relative activity (%)",0%
same,"activity at 30 min, […]","CYP2C19; human, human liver microsomes, probe mephenytoin (25 µM), read-out: Relative activity (%)",36.8%
same,IC50,"CYP3A4; HLMs, 30 min pre-incubation with NADPH, midazolam 10 µM, µM",1.53 ± 2.25 µM
same,"activity at 30 min, 0.1 µM","CYP3A4; human, human liver microsomes, probe midazolam (10 µM), CYP3A4-30min, GA 0.10, vs control, read-out: Relative activity (%)",95.9%
same,"activity at 30 min, 1 µM","CYP3A4; human, human liver microsomes, probe midazolam (10 µM), CYP3A4-30min, GA 1.00, vs control, read-out: Relative activity (%)",64.6%
same,"activity at 30 min, 6.25 µM","CYP3A4; human, human liver microsomes, probe midazolam (10 µM), CYP3A4-30min, GA 6.25, vs control, read-out: Relative activity (%)",39.1%
same,"activity at 30 min, 31.25 µM","CYP3A4; human, human liver microsomes, probe midazolam (10 µM), CYP3A4-30min, GA 31.25, vs control, read-out: Relative activity (%)",13.5%
same,"activity at 30 min, 100 µM","CYP3A4; human, human liver microsomes, probe midazolam (10 µM), CYP3A4-30min, GA 100.00, vs control, read-out: Relative activity (%)",15.2%
same,"activity at 30 min, 156.25 µM","CYP3A4; human, human liver microsomes, probe midazolam (10 µM), CYP3A4-30min, GA 156.25, vs control, read-out: Relative activity (%)",13.1%
same,"activity at 30 min, 312.5 µM","CYP3A4; human, human liver microsomes, probe midazolam (10 µM), CYP3A4-30min, GA 312.50, vs control, read-out: Relative activity (%)",0.261%
same,"activity at 30 min, 1000 µM","CYP3A4; human, human liver microsomes, probe midazolam (10 µM), CYP3A4-30min, GA 1000.00, vs control, read-out: Relative activity (%)",0.298%
same,"activity at 30 min, […]","CYP3A4; human, human liver microsomes, probe midazolam (10 µM), read-out: Relative activity (%)",3.63%
same,IC50,"CYP2C9; HLMs, 30 min pre-incubation with NADPH, tolbutamide 25 µM",26.5 ± 3.08 µM
same,"activity at 30 min, 0.1 µM","CYP2C9; human, human liver microsomes, probe tolbutamide 25 µM, CYP2C9-30min, GA 0.1000, vs control, read-out: Relative activity (%)",114%
same,"activity at 30 min, 1 µM","CYP2C9; human, human liver microsomes, probe tolbutamide 25 µM, CYP2C9-30min, GA 1.0000, vs control, read-out: Relative activity (%)",81%
same,"activity at 30 min, 6.25 µM","CYP2C9; human, human liver microsomes, probe tolbutamide 25 µM, CYP2C9-30min, GA 6.2500, vs control, read-out: Relative activity (%)",76.2%
same,"activity at 30 min, 31.25 µM","CYP2C9; human, human liver microsomes, probe tolbutamide 25 µM, CYP2C9-30min, GA 31.2500, vs control, read-out: Relative activity (%)",56.1%
same,"activity at 30 min, 100 µM","CYP2C9; human, human liver microsomes, probe tolbutamide 25 µM, CYP2C9-30min, GA 100.0000, vs control, read-out: Relative activity (%)",48.9%
same,"activity at 30 min, 156.25 µM","CYP2C9; human, human liver microsomes, probe tolbutamide 25 µM, CYP2C9-30min, GA 156.2500, vs control, read-out: Relative activity (%)",46.2%
same,"activity at 30 min, 312.5 µM","CYP2C9; human, human liver microsomes, probe tolbutamide 25 µM, CYP2C9-30min, GA 312.5000, vs control, read-out: Relative activity (%)",18.1%
same,"activity at 30 min, […]","CYP2C9; human, human liver microsomes, probe tolbutamide 25 µM, read-out: Relative activity (%)",35.9%
same,"activity at 30 min, 1000 µM","CYP2C9; human, human liver microsomes, probe tolbutamide (25 µM), CYP2C9-30min, GA 1000.0000, vs control, read-out: Relative activity (%)",14.9%
same,Remaining percentage of GA (%),"BAK metabolism in HLMs; GA 12.5 µM with BAK 10 µM, HLMs",99.37 ± 9.39% and 99.37%
same,Inhibition of BAK by GA (%),"BAK metabolism in HLMs; GA 12.5 µM, BAK 10 µM, HLMs",23% and 22.72 ± 4.55% and 22.72%
same,"Inhibition of BAK by GA, single samples","BAK metabolism in HLMs; GA 12.5 µM, BAK 10 µM",17.95% and 23.22% and 27.00%
same,"remaining of GA (%), single samples","BAK metabolism in HLMs; GA 12.5 µM, BAK 10 µM",94.84% and 93.11% and 110.17%
same,Remaining percentage of GA (%),"BAK metabolism in HLMs; GA 62.5 µM with BAK 10 µM, HLMs",100.7 ± 12.33% and 100.77%
same,Inhibition of BAK by GA (%),"BAK metabolism in HLMs; GA 62.5 µM, BAK 10 µM, HLMs",44% and 43.85 ± 22.41% and 43.85%
same,"remaining of GA (%), single samples","BAK metabolism in HLMs; GA 62.5 µM, BAK 10 µM",112.61% and 101.67% and 88.01%
same,"remaining of GA (%), single samples","BAK metabolism in HLMs; GA 93.75 µM, BAK 10 µM",94.57% and 101.22%
same,Remaining percentage of GA (%),"BAK metabolism in HLMs; GA 125.0 µM with BAK 10 µM, HLMs",107.8 ± 7.54% and 107.76%
same,Inhibition of BAK by GA (%),"BAK metabolism in HLMs; GA 125.0 µM, BAK 10 µM, HLMs",92% and 92.00 ± 4.64%
same,"Inhibition of BAK by GA, single samples","BAK metabolism in HLMs; GA 125 µM, BAK 10 µM",97.25% and 88.45% and 90.28%
same,"remaining of GA (%), single samples","BAK metabolism in HLMs; GA 125 µM, BAK 10 µM",101.56% and 105.56% and 116.14%
same,GA concentrations at which significant inhibition of BAK metabolic clearance was observed,"BAK metabolism in HLMs; HLMs, BAK 10 µM",above 12.5 µM
same,effect on HK-2 cell survival,HK-2 cells,did not affect

# Reference: PMC5126668 (PeerJ, 2016)
